Measured values published in patent publication US11952363B2, “Piperazine compounds for the treatment of autoimmune disease” (Hoffmann-La Roche Inc., priority 2018, dated 2024).

Molecular target: T1, hERG (Homo sapiens, UniProt Q12809)
T1 construct: expressed in transfected cells
Assay: hERG channel inhibition assay (patch-clamp, CHO hERG cells)
Type: cell-based
Details: for IC50 / IC20: CHO hERG cells, whole-cell patch-clamp; for IC20: human, CHO cells stably expressing hERG; for hERG IC20/TLR7 IC50 / hERG IC20/TLR8 IC50 / hERG IC20/TLR9 IC50: safety ratio, >30 suggests sufficient window
Procedure: The hERG K^+ channels were cloned in humans and stably expressed in a CHO (Chinese hamster ovary) cell line. CHOhERG cells were used for patch-clamp (voltage-clamp, whole-cell) experiments. Cells were stimulated by a voltage pattern to activate hERG channels and conduct I KhERG currents (rapid delayed outward rectifier potassium current of the hERG channel). After the cells were stabilized for a few minutes, the amplitude and kinetics of I KhERG were recorded at a stimulation frequency of 0.1 Hz (6 bpm). Thereafter, the test compound was added to the preparation at increasing concentrations. For each concentration, an attempt was made to reach a steady-state effect, usually, this was achieved within 3-10 min at which time the next highest concentration was applied. The amplitude and kinetics of IKhERG are recorded in each concentration of the drug which were compared to the control values (taken as 100%). […]

T1 sequence (Q12809 whole entry): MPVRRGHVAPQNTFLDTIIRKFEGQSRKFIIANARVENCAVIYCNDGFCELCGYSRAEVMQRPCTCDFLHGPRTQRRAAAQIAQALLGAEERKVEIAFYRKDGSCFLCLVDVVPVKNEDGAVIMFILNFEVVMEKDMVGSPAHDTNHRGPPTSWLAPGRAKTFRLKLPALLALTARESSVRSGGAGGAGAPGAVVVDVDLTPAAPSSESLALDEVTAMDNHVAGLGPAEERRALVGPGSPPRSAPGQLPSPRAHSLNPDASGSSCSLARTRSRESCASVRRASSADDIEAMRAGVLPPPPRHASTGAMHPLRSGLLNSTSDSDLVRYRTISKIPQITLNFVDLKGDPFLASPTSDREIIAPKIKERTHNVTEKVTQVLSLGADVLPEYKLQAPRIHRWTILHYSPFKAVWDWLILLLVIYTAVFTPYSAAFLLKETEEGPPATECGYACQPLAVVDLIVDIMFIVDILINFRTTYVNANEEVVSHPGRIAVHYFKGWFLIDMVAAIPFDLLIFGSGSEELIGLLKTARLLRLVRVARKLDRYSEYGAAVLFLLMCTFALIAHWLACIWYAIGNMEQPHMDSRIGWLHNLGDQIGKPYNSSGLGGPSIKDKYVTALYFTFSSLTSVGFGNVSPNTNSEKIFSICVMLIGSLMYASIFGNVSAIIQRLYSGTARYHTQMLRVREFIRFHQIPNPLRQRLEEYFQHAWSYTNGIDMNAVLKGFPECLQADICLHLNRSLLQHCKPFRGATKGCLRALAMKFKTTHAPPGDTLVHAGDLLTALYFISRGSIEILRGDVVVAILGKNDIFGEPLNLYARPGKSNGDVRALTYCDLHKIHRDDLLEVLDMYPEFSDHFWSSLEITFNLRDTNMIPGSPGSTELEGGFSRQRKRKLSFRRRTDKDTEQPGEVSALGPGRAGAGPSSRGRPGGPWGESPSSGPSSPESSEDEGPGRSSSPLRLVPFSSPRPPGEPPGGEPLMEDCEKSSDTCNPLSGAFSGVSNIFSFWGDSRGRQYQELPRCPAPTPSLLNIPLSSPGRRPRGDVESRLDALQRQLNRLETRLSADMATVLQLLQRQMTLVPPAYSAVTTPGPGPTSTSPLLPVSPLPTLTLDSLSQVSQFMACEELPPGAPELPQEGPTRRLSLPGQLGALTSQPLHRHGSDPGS

SMILES | IC50 [µM] | IC20 [µM] | hERG IC20/TLR7 IC50 | hERG IC20/TLR8 IC50 | hERG IC20/TLR9 IC50
C[C@@H]1CN(c2ccc(C#N)c3ncccc23)C[C@H](C)N1Cc1ccc(N2CCNCC2)nc1 [Example 3, 5-[(3R,5S)-3,5-Dimethyl-4-[(6-piperazin-1-yl-3-pyridyl)methyl]piperazin-1-yl]quinoline-8-carbonitrile] | > 20 | 7.4 | 383 | 240 | 79
C[C@@H]1CN(c2ccc(C#N)c3ncccc23)C[C@H](C)N1Cc1ncc(N2CCNCC2)cn1 [Example 4, 5-[(3S,5R)-3,5-Dimethyl-4-[(5-piperazin-1-ylpyrimidin-2-yl)methyl]piperazin-1-yl]quinoline-8-carbonitrile] | > 20 | 6.3 | 384 | 355 | 45
C[C@@H]1CN(c2ccc(C#N)c3ncccc23)C[C@H](C)N1Cc1ccc(N2CCNCC2)cn1 [Example 5, 5-[(3S,5R)-3,5-Dimethyl-4-[(5-piperazin-1-yl-2-pyridyl)methyl]piperazin-1-yl]quinoline-8-carbonitrile] | > 20 | > 10 | >833 | >666 | >119
C[C@@H]1CN(c2ccc(C#N)c3ncccc23)C[C@H](C)N1Cc1ccc(N2CCN(C(=O)C3CCCN3)CC2)cn1 (stereo partly drawn) [Example 10, 5-[(3R,5S)-3,5-Dimethyl-4-[[5-[4-(pyrrolidine-2-carbonyl)piperazin-1-yl]-2-pyridyl]methyl]piperazin-1-yl]quinoline-8-carbonitrile] | > 20 | > 10 | >145 | >197 | >242
C[C@@H]1CN(c2ccc(C#N)c3ncccc23)C[C@H](C)N1Cc1ccc(N2CCN(C(=O)CN(C)C)CC2)cn1 [Example 11, 5-[(3S,5R)-4-[[5-[4-[2-(Dimethylamino)acetyl]piperazin-1-yl]-2-pyridyl]methyl]-3,5-dimethyl-piperazin-1-yl]quinoline-8-carbonitrile] | > 20 | > 10 | >198 | >289 | >104
C[C@@H]1CN(c2ccc(C#N)c3ncccc23)C[C@H](C)N1CC(=O)N1Cc2ccc(N3CCNCC3)cc2C1 [Example 16, 5-[(3R,5S)-3,5-Dimethyl-4-[2-oxo-2-(5-piperazin-1-ylisoindolin-2-yl)ethyl]piperazin-1-yl]quinoline-8-carbonitrile] | > 20 | > 10 | >289 | >182 | >134
